Read-outs that look alike come from different tables or passages of the source.
Legend:
[1] = in vitro; assay type: in vitro ADME; details: pH 7.4, 37 °C
Method: Then, we analyzed the stability of the compounds in plasma. […] The observed increase in plasma stability of the tested amide derivatives compared to bisacylhydrazone 14 supports our design hypothesis for the isosteric replacement of the bisacylhydrazone linking motif. […]
Each compound dissolved in DMSO was added to mouse plasma (pH 7.4, 37 °C) or to human plasma (pH 7.4, 37 °C) to yield a final concentration of 1 µM. In addition, procaine and procainamide (dissolved in DMSO) were added to mouse plasma or to human plasma (pH 7.4, 37 °C) to yield a final concentration of 1 µM. Procaine served as positive control as it is unstable in mouse plasma. Procainamide served as negative control as it is stable in mouse plasma. The samples were incubated for 0 min, 15 min, 30 min, 60 min, 90 min, 120 min and 240 min at 37 °C. At each time point, 10 µl of the respective sample was extracted with 90 µL acetonitrile containing 12.5 ng/mL caffeine as internal standard for 5 min at 2000 rpm on a MixMate vortex […]
mixer (Eppendorf). Acetonitrile and caffeine were dispensed using a Mantis Formulatrix. Then samples were centrifuged for 20 min at 2.270 x g at 4 °C and the supernatants were transferred to 96-well Greiner V-bottom plates. Peak areas of each compound and of the internal standard were analyzed using the MultiQuant 3.0 software (AB Sciex). Peak areas of the respective compound were normalized to the internal standard peak area and to the respective peak areas at time point 0 min: (C/D)/(A/B) with A: peak area of the compound at time point 0 min, B: peak area of the internal standard at time point 0 min, C: peak area of the compound at the respective time point, D: peak area of the internal standard at the respective time point. […]
2 hours at 800 rpm on an Eppendorf MixMate vortex-mixer. Then samples were withdrawn from the respective chambers. To 25 µL of each dialysis sample, 25 µL of plasma and to 25 µL of plasma sample, 25 µL of dialysis buffer was added. Then 150 µL ice-cold extraction solvent (ACN/H2O (90:10) containing 12.5 ng/mL caffeine as internal standard) was added. Samples were incubated for 30 min on ice. Then samples were centrifuged at 4 °C at 2270 x g for 10 min.

[2] = biological target: T1, LecA (Pseudomonas aeruginosa, UniProt Q05097); experiment: Direct binding to immobilized LecA by surface plasmon resonance (SPR); details: for kon: SPR single-cycle kinetics, 25 °C, N=3 (I1 N=1); for Relative potency r.p. (SPR): compared to respective monovalent compound in each series
T1 construct: made in house
Method: K d values were oscillating with the number of methylene units present in the linker, presumably linked to the zig‐zag geometry of the hydrocarbon chain.
Expression and purification of LecA as well as competitive binding by fluorescence polarization was performed as described by Joachim et al..[9] […]
Surface plasmon resonance experiments were performed on a BIACORE X100 instrument (GE Healthcare) at 25 °C as described by Zahorska et. al..[8] Averages and standard deviations were calculated from three independent experiments. […]
Figure S3: SPR of divalent LecA ligands from benzene series. Sensorgrams obtained from SPR single-cycle kinetics experiments. Five different concentrations of each compound (0, 10, 50, 100, 200 nM) were sequentially injected to obtain the experimental sensorgrams (blue lines), which were then fitted by a 1:1 model (orange) on BIACORE evaluation software. […]
Figure S4: SPR of divalent LecA ligands from pyridine and sulfonated series. Sensorgrams obtained from SPR single-cycle kinetics experiments. Five different concentrations of each compound (0, 10, 50, 100, 200 nM) were sequentially injected to obtain the experimental sensorgrams (blue lines), which were then fitted by a 1:1 model (orange) on BIACORE evaluation software.
(also on this page, place not known: Response (RU)0 Response (RU)0 Response (RU) Response (RU) Response (RU) Response (RU) 030060090012001500) […]

[3] = biological target: T1, LecA; experiment: Competitive binding assay based on fluorescence polarization
Method: All synthesized galactosides were then evaluated for LecA inhibition using a competitive binding assay based on fluorescence polarization (Figure S1).[24]
Expression and purification of LecA as well as competitive binding by fluorescence polarization was performed as described by Joachim et al..[9] The assay was performed in TBS/Ca2+ buffer (20 mM Tris, 137 mM NaCl, 2.6 mM KCl at pH 7.4 supplemented with 1 mM CaCl2) in presence of 25% DMSO. Averages and standard deviations were calculated from at least three independent experiments. […]
RR OR In h i b i to r [µ M ]
R R In h i b i to r [µ M ] […]
R In h i b i to r [µ M ] 30 L2
30 F2 40 K2 In h i b i to r [µ M ] […]
In h i b i to r [µ M ] In h i b i to r [µ M ]
Figure S1: Evaluation of amide divalent LecA ligands in a competitive binding assay based on fluorescence […]
representative experiment is shown or each series. Averages and standard deviations from at least three independent titrations of triplicates each.
[…] Fluorescence polarization [mP] -1 0 1 2 3 0 1001010 Me-α-Gal pNO2-Ph-β-Gal 1000 Inhibitor [µM] Fluorescence polarization [mP])

[4] = human plasma, read-out: Plasma stability t1/2 Human
[5] = mouse plasma, read-out: Plasma stability t1/2 Mouse

T1 sequence (Q05097 whole entry): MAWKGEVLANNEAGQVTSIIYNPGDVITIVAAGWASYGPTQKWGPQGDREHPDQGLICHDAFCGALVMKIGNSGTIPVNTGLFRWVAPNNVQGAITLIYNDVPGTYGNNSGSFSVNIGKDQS

Structure (SMILES)	half-life at 1 µM [1, 4]	half-life at 1 µM [1, 5]	Kd [2]	koff [2]	kon [2]	Relative potency r.p. (SPR) [2]	IC50 [3]
O=C(/C=C/c1ccc(O[C@@H]2O[C@H](CO)[C@H](O)[C@H](O)[C@H]2O)cc1)Nc1ccc(OCCOc2ccc(NC(=O)/C=C/c3ccc(O[C@@H]4O[C@H](CO)[C@H](O)[C@H](O)[C@H]4O)cc3)cc2)cc1 [Compound D1]	3.73 h	3 h	0.0407 ± 0.003 µM	0.00249 ± 0.00028 s⁻¹	61.1 ± 2.5 x10^3/Ms	128	5.6 ± 3.1 µM
O=C(CCc1ccc(O[C@@H]2O[C@H](CO)[C@H](O)[C@H](O)[C@H]2O)cc1)Nc1ccc(OCCOc2ccc(NC(=O)CCc3ccc(O[C@@H]4O[C@H](CO)[C@H](O)[C@H](O)[C@H]4O)cc3)cc2)cc1 [Compound D2]	2.21 h	3.04 h	0.0231 ± 0.0003 µM	0.00284 ± 6e-05 s⁻¹	123 ± 4.1 x10^3/Ms	233	4.5 ± 1.8 µM
COc1ccc(NC(=O)CCc2ccc(O[C@@H]3O[C@H](CO)[C@H](O)[C@H](O)[C@H]3O)cc2)cn1 [Compound G2]			2.97 ± 0.08 µM			1	14.3 ± 7.2 µM
O=C(/C=C/c1ccc(O[C@@H]2O[C@H](CO)[C@H](O)[C@H](O)[C@H]2O)cc1)Nc1ccc(OCCOc2ccc(NC(=O)/C=C/c3ccc(O[C@@H]4O[C@H](CO)[C@H](O)[C@H](O)[C@H]4O)cc3)cn2)nc1 [Compound H1]	> 4 h	> 3 h	0.0137 ± 0.0016 µM	0.00165 ± 0.00012 s⁻¹	121 ± 6.8 x10^3/Ms	217	8 ± 4.3 µM
O=C(CCc1ccc(O[C@@H]2O[C@H](CO)[C@H](O)[C@H](O)[C@H]2O)cc1)Nc1ccc(OCCOc2ccc(NC(=O)CCc3ccc(O[C@@H]4O[C@H](CO)[C@H](O)[C@H](O)[C@H]4O)cc3)cn2)nc1 [Compound H2]	3.58 h	1.35 h	0.0099 ± 0.0001 µM	0.00141 ± 5e-05 s⁻¹	142 ± 3.5 x10^3/Ms	300	4.8 ± 2.2 µM
Cc1ccc(NC(=O)CCc2ccc(O[C@@H]3O[C@H](CO)[C@H](O)[C@H](O)[C@H]3O)cc2)cc1S(=O)(=O)O [Compound K2]			3.79 ± 0.1 µM			1	14.4 ± 3.6 µM
O=C(CCc1ccc(O[C@@H]2O[C@H](CO)[C@H](O)[C@H](O)[C@H]2O)cc1)Nc1ccc(CCc2ccc(NC(=O)CCc3ccc(O[C@@H]4O[C@H](CO)[C@H](O)[C@H](O)[C@H]4O)cc3)cc2S(=O)(=O)O)c(S(=O)(=O)O)c1 [Compound L2]	> 4 h	> 4 h	0.0328 ± 0.0015 µM	0.00707 ± 0.0011 s⁻¹	215 ± 29 x10^3/Ms	115	4.6 ± 2.2 µM
